Consider 7 molecules from US4166864A, “Pesticidal unsymmetrical bis-arylcarbamate disulfide compounds” (Union Carbide Corporation, priority 1977, dated 1979).

What all share (assay type): in vivo
The subject of data set [1] is southern armyworm (Prodenia eridania, (Cram.)). Description: Southern Armyworm Leaf Spray Test. The following applies: 500 ppm leaf spray, three days. Also on record: key: A: excellent control; B: partial control; C: no control. How it is done: (§1) Suspensions of the test compounds were prepared by dissolving one gram of compound in 50 milliliters of acetone in which had been dissolved 0.1 gram (10 percent of the weight of compound) of an alkylphenoxy polyethoxyethanol surfactant, as an emulsifying or dispersing agent. The resulting solution was mixed into 150 milliliters of water to give roughly 200 milliliters of a suspension containing the compound in finely divided form. The thus-prepared stock suspension contained 0.5 percent by weight of compound. The test concentrations in parts per million by weight employed in the tests described hereinbelow were obtained by appropriate dilutions of the stock suspension with water. The test procedures were as follows:
Larvae of the southern arymworm (Prodenia eridania, (Cram.)), reared on Tendergreen bean plants at a temperature of 80°±5° F. and a relative humidity of 50±5 percent, constituted the test insects.
The test compounds were formulated by diluting the stock suspension with water to give a suspension containing 500 parts of test compound per million parts of final formulation. Potted Tendergreen bean plants of standard height and age were placed on a revolving turntable and sprayed with 100-110 milliliters of test compound formulation by use of a DeVilbiss spray gun set at 10 psig air pressure. This application, which lasted 25 seconds, was sufficient to wet plants to run-off. As a control, 100-110 milliliters of a water-acetone-emulsifier solution containing no test compound were also sprayed on infested plants. When dry, the paired leaves were separated and each one was placed in a 9 centimeter Petri dish lined with moistened filter paper. Five randomly selected larvae were introduced into each dish and the dishes were closed. The closed dishes were labeled and held at 80°-85° F. for three days. Although the larvae could easily consume the whole leaf within twenty-four hours, no more food was added. Larvae which were unable to move the length of the body, even upon stimulation by prodding, were considered dead. Percent mortality was recorded for various concentration levels.
(§2) In these tests the pesticidal activity of the compounds against aphid, mite, Southerm Armyworm, Bean Beetle and house fly was rated as follows: […]

Data set [2] relates to Mexican bean beetle (Epilachna varivestis, Muls.). The experiment in a line: Mexican Bean Beetle Leaf Spray Test. Also on record: key: A: excellent control; B: partial control; C: no control. The following applies: 500 ppm leaf spray, three days. Here is the method:
as §1
Fourth instar larvae of the Mexican bean beetle (Epilachna varivestis, Muls.), reared on Tendergreen bean plants at a temperature of 80°±5° F. and 50±5 percent relative humidity, were the test insects.
The test compounds were formulated by diluting the stock suspension with water to give a suspension containing 500 parts of test compound per million parts of final formulation. Potted Tendergreen bean plants of standard height and age were placed on a revolving turntable and sprayed with 100-110 milliliters of test compound formulation by use of a DeVilbiss spray gun set at 10 psig air pressure. This application, which lasted 25 seconds, was sufficient to wet plants to run-off. As a control, 100-110 milliliters of a water-acetone-emulsifier solution containing no test compound were also sprayed on infested plants. When dry, the paired leaves were separated and each was placed in a 9 centimeter Petri dish lined with moistened filter paper. Five randomly selected larvae were introduced into each dish, and the dishes were closed. The closed dishes were labeled and held at a temperature of 80°±5° F. for three days. Although the larvae could easily consume the leaf within 24 to 48 hours, no more food was added. Larvae which were unable to move the length of the body, even upon stimulation, were considered dead.
as §2

For data set [3], the system named is Tomato. The experiment in a line: Phytotoxicity Test, tomato. Also on record: key: 1: no perceptible injury; 2: intermediate degrees of injury based upon the number and extent to which leaves were injured; 3: intermediate degrees of injury based upon the number and extent to which leaves were injured; 4: intermediate degrees of injury based upon the number and extent to which leaves were injured; 5: the plant was dead. The following applies: 2500 ppm spray, rated after ten days. How it is done:
(§3) Experiments were also conducted to determine the phytoxicity of representative compounds with respect to healthy fresh plants. Solutions of the compounds were prepared as described above to provide a concentration of 2500 parts per million of the test compound. The test plants were sprayed in accordance with the procedure described above for the Mite Foliage Spray Test so as to deliver approximately 100 milliliters of test solution to the leaves of each plant tested. The sprayed plants and controls were set aside for approximately one hour to allow the foliage to dry and were then placed in the greenhouse. After ten days the plants were visually inspected to determine the extent of foliage injury. A rating of 1 indicates no perceptible injury; 5 indicates the plant was dead and ratings of 2, 3 and 4 indicate intermediate degrees of injury based upon the number and extent to which leaves were injured.

For data set [4], the system named is Soybean. Description: Phytotoxicity Test, soybean. Also on record: key: 1: no perceptible injury; 2: intermediate degrees of injury based upon the number and extent to which leaves were injured; 3: intermediate degrees of injury based upon the number and extent to which leaves were injured; 4: intermediate degrees of injury based upon the number and extent to which leaves were injured; 5: the plant was dead. The following applies: 2500 ppm spray, rated after ten days. Here is the method:
as §3

Consider `C#CCOc1ccccc1OC(=O)N(C)SSN(C)C(=O)Oc1cccc2c1OC(C)(C)C2`, for which the “Insecticidal activity rating, Southern Armyworm” value in data set [1] is recorded as “A”. In data set [2], the “Insecticidal activity rating, Mexican Bean Beetle” value is recorded as “A”. In data set [3], the “Phytotoxicity, Tomato” value is on record as 1. For the same molecule, the “Phytotoxicity, Soybean” value in data set [4] is on record as 2.

Turning to `CN(SSN(C)C(=O)Oc1cccc2ccccc12)C(=O)Oc1cccc2c1OC(C)(C)C2`, the “Insecticidal activity rating, Southern Armyworm” value in data set [1] was “A”. Moreover, in data set [2], the “Insecticidal activity rating, Mexican Bean Beetle” value is “A”. Besides, the “Phytotoxicity, Tomato” value in data set [3] was determined as 1. In addition, the “Phytotoxicity, Soybean” value in data set [4] came to 1.

`CSc1ccc(OC(=O)N(C)SSN(C)C(=O)Oc2cccc3c2OC(C)(C)C3)cc1C`: the “Insecticidal activity rating, Southern Armyworm” value in data set [1] is “A”. For the same molecule, the “Insecticidal activity rating, Mexican Bean Beetle” value in data set [2] is listed as “A”. Also, the “Phytotoxicity, Tomato” value in data set [3] came to 1. Besides, the “Phytotoxicity, Soybean” value in data set [4] is 1.

Regarding `Cc1cc(C)cc(OC(=O)N(C)SSN(C)C(=O)Oc2cccc3c2OC(C)(C)C3)c1`, the “Insecticidal activity rating, Southern Armyworm” value in data set [1] is given as “A”. Further, the “Insecticidal activity rating, Mexican Bean Beetle” value in data set [2] is listed as “A”. Moreover, in data set [3], the “Phytotoxicity, Tomato” value is 1. Moreover, the “Phytotoxicity, Soybean” value in data set [4] was determined as 1.

As to `CN(SSN(C)C(=O)Oc1cccc2c1OC(C)(C)C2)C(=O)Oc1cccc(N(C)C)c1`, the “Insecticidal activity rating, Southern Armyworm” value in data set [1] is “A”. Besides, the “Insecticidal activity rating, Mexican Bean Beetle” value in data set [2] is “A”. Moreover, the “Phytotoxicity, Tomato” value in data set [3] is recorded as 1. Moreover, in data set [4], the “Phytotoxicity, Soybean” value is 1.

As for `CN(SSN(C)C(=O)Oc1cccc2c1OC(C)(C)C2)C(=O)Oc1ccc2c(c1)OCO2`, the “Insecticidal activity rating, Southern Armyworm” value in data set [1] is “A”. Further, the “Insecticidal activity rating, Mexican Bean Beetle” value in data set [2] is given as “A”. Further, the “Phytotoxicity, Tomato” value in data set [3] stood at 1. The “Phytotoxicity, Soybean” value in data set [4] came to 1.

On to `CN(SSN(C)C(=O)Oc1ccccc1C1SCCS1)C(=O)Oc1ccc(C(C)(C)C)cc1`, for which the “Insecticidal activity rating, Southern Armyworm” value in data set [1] is on record as “C”. In addition, the “Insecticidal activity rating, Mexican Bean Beetle” value in data set [2] is on record as “A”. Also, the “Phytotoxicity, Tomato” value in data set [3] is recorded as 1. Further, the “Phytotoxicity, Soybean” value in data set [4] was 1.
